Source: patent publication US8445505B2 (IRM LLC, priority 2008, dated 2013)

What follows are molecules tested against IGF1R Ba/F3 (Homo sapiens, UniProt P08069) (assay: Ba/F3 Cell Viability Inhibition Assay (Tel-TK transformed Ba/F3 lines)). Settings: Tel-TK (IGF1R) transformed Ba/F3 cells, 48 hours incubation, cell viability (Britelite luminescence).
Type: cell-based, murine
Parameters: the printed alternative
From the text: Ba/F3 is a murine IL-3-dependent pro-B lymphoma cell line. Parental Ba/F3 cells are used to generate a panel of sublines whose proliferation and survival is rendered IL-3-independent by stable transduction with individual tyrosine kinases activated by fusion with the amino-terminal portion of TEL (amino acid 1-375) or BCR. In order to generate Ba/F3 cell lines transformed by Tel-Tyrosine Kinase (TK) fusions, parental Ba/F3 cells are infected with a retrovirus harboring each TEL-fusion kinase and subjected to puromycin selection and IL-3 withdrawal to obtain IL-3-independent, transformed Ba/F3 cells.
Each transformed Ba/F3 cells are cultured in RPMI-1640 media (Gibco Cat #11875093, Carlsbad, Calif.) supplemented with 10% FBS (Hyclone Cat #SV30014.03, Logan, Utah), 4.5 g/L glucose (Sigma #G5400, St.Louis, Mo.), 1.5 g/L sodium bicarbonate (Biowhittaker #17-613E, Walkersville, Md.) and Pen/Strep (Gibco #10378-016, Carlsbad, Calif.). Cells are splitted twice weekly.
The potency of test compounds against various Tel-TK transformed Ba/F3 lines is determined as follows. Exponentially growing BaF3 Tel-TK cells are diluted in fresh medium to 75,000 cells/mL and seeded into 384-well plates (3750 cells/well) at 50 μL/well using a gill liquid dispenser (BioTek, Winooski, Vt., USA). Duplicate plates are run for each cell line. Test and control compounds are serially diluted with DMSO and arrayed in a polypropylene 384-well plate. 50 nL of compound is transferred into the assay plates using a pin-transfer device, and the plates are incubated at 37° C. (5% CO2) for 48 hours. 25 μL Britelite (Perkin Elmer) is added and luminescence is quantified using Analyst GT (Molecular Devices). Custom curve-fitting software is used to produce a logistic fit of percent cell viability as a function of the logarithm of inhibitor concentration. The IC50 is interpolated as the concentration of compound needed to reduce cell viability to 50% of a DMSO control. Parental Ba/F3 cells that are maintained and cultured in presence of IL-3 (1 ng/ml in final) are diluted in fresh medium containing IL-3 (1 ng/ml in final) to 75,000 cells/mL following the same procedure as described above.

Sequence of IGF1R Ba/F3 (P08069 999-1274 limits assumed): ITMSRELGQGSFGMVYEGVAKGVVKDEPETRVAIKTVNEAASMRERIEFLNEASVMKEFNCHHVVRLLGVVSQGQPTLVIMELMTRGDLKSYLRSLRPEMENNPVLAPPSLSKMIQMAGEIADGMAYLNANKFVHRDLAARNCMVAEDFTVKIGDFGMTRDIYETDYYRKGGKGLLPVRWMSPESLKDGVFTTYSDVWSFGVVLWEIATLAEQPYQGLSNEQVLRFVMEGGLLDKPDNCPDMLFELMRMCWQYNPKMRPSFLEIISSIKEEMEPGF

Question: Which IC50 does the source give for `Cc1cc(Nc2nc(Nc3cc(C)c(C4CCC(=NO)CC4)cc3C)ncc2Cl)n[nH]1` (centres unmarked) [Compound 33, 4-(4-(5-chloro-4-(5-methyl-1H-pyrazol-3-ylamino)pyrimidin-2-ylamino)-2,5-dimethylphenyl)cyclohexanone oxime] here?
Answer: Its IC50 is 15 nM.

Question: For `CO/N=C(\C)c1cc(C)c(Nc2ncc(Cl)c(Nc3cc(C)[nH]n3)n2)cc1C` [Compound 34, 1-(4-(5-chloro-4-(5-methyl-1H-pyrazol-3-ylamino)pyrimidin-2-ylamino)-2,5-dimethylphenyl)ethanone O-methyl oxime], which IC50 is on record?
Answer: The IC50 was 269 nM.

Question: With `C/C(=N\OCCN(C)C)c1cc(C)c(Nc2ncc(Cl)c(Nc3cc(C)[nH]n3)n2)cc1C` [Compound 35, 1-(4-(5-chloro-4-(5-methyl-1H-pyrazol-3-ylamino)pyrimidin-2-ylamino)-2,5-dimethylphenyl)ethanone O-2-(dimethylamino)ethyl oxime] as the molecule, how does the IC50 read?
Answer: The IC50 was 121 nM.

Question: For `C/C(=N\OCCN1CCOCC1)c1cc(C)c(Nc2ncc(Cl)c(Nc3cc(C)[nH]n3)n2)cc1C` [Compound 36, 1-(4-(5-chloro-4-(5-methyl-1H-pyrazol-3-ylamino)pyrimidin-2-ylamino)-2,5-dimethylphenyl)ethanone O-2-morpholinoethyl oxime], which IC50 is on record?
Answer: The IC50 was 187 nM.

Question: For `Cc1cc(Nc2nc(Nc3cc(C)c([C@H]4CC[C@H](N5CCOCC5)CC4)cc3C)ncc2Cl)n[nH]1` [Compound 37, 5-chloro-N^2-(2,5-dimethyl-4-(4-trans-morpholinocyclohexyl)phenyl)-N^4-(5-methyl-1H-pyrazol-3-yl)pyrimidine-2,4-diamine], which IC50 is on record?
Answer: Its IC50 is 11 nM.

Question: For `Cc1cc(Nc2nc(Nc3cc(C)c([C@H]4CC[C@@H](N5CCOCC5)CC4)cc3C)ncc2Cl)n[nH]1` [Compound 38, 5-chloro-N^2-(2,5-dimethyl-4-(4-cis-morpholinocyclohexyl)phenyl)-N^4-(5-methyl-1H-pyrazol-3-yl)pyrimidine-2,4-diamine], which IC50 is on record?
Answer: The IC50 was 9 nM.

Question: With `Cc1cc(Nc2nc(Nc3cc(C)c(CN4CCOCC4)cc3C)ncc2Cl)n[nH]1` [Compound 39, 5-Chloro-N^2-(2,5-dimethyl-4-(morpholinomethyl)phenyl)-N^4-(5-methyl-1H-pyrazol-3-yl)pyrimidine-2,4-diamine] as the molecule, how does the IC50 read?
Answer: The IC50 was 151 nM.

Question: With `Cc1cc(Nc2nc(Nc3cc(C)c(C4CCC(=O)CC4)cc3C)ncc2C(F)(F)F)n[nH]1` [Compound 40, 4-(2,5-dimethyl-4-(4-(5-methyl-1H-pyrazol-3-ylamino)-5-(trifluoromethyl)pyrimidin-2-ylamino)phenyl)cyclohexanone] as the molecule, how does the IC50 read?
Answer: The IC50 was 49 nM.

Question: For `Cc1cc(Nc2nc(Nc3cc(C)c([C@H]4CC[C@H](O)CC4)cc3C)ncc2C(F)(F)F)n[nH]1` [Compound 41, trans-4-(2,5-dimethyl-4-(4-(5-methyl-1H-pyrazol-3-ylamino)-5-(trifluoromethyl)pyrimidin-2-ylamino)phenyl)cyclohexanol], which IC50 is on record?
Answer: Its IC50 is 25 nM.

Question: For `Cc1cc(Nc2nc(Nc3cc(C)c([C@H]4CC[C@@H](O)CC4)cc3C)ncc2C(F)(F)F)n[nH]1` [Compound 42, cis-4-(2,5-dimethyl-4-(4-(5-methyl-1H-pyrazol-3-ylamino)-5-(trifluoromethyl)pyrimidin-2-ylamino)phenyl)cyclohexanol], which IC50 is on record?
Answer: Its IC50 is 53 nM.

Question: For `Cc1cc(Nc2nc(Nc3cc(C)c([C@H]4CC[C@@H](N5CCCCC5)CC4)cc3C)ncc2Cl)n[nH]1` [Compound 43, Cis-5-chloro-N2-(2,5-dimethyl-4-(4-(pipcridin-1-yl)cyclohexyl)phenyl)-N4-(5-methyl-1H-pyrazol-3-yl)pyrimidine-2,4-diamine], which IC50 is on record?
Answer: The IC50 was 8 nM.

Question: How did the IC50 turn out when `Cc1cc(Nc2nc(Nc3cc(C)c([C@H]4CC[C@H](N5CCCCC5)CC4)cc3C)ncc2Cl)n[nH]1` [Compound 44, Trans-5-chloro-N2-(2,5-dimethyl-4-(4-(piperidin-1-yl)cyclohexyl)phenyl)-N4-(5-methyl-1H-pyrazol-3-yl)pyrimidine-2,4-diamine] was run?
Answer: Its IC50 is 7 nM.

Question: Which IC50 does the source give for `Cc1cc(Nc2nc(Nc3cc(C)c([C@H]4CC[C@H](O)CC4)cc3C)ncc2Cl)n[nH]1` [Compound 45, trans-4-(4-(5-chloro-4-(5-rnethyl-1H-pyrazol-3-ylamino)pyrimidin-2-ylamino)-2,5-dimethylphenyl)cyclohexanol] here?
Answer: Its IC50 is 14 nM.

Question: How did the IC50 turn out when `Cc1cc(Nc2nc(Nc3cc(C)c([C@H]4CC[C@H](NC5CC5)CC4)cc3C)ncc2Cl)n[nH]1` [Compound 46, Trans-5-chloro-N2-(4-(4-(cyclopropylamino)cyclohexyl)-2,5-dimethylphenyl)-N4-(5-methyl-1H-pyrazol-3-yl)pyrimidine-2,4-diamine] was run?
Answer: The IC50 was 16 nM.

Question: Which IC50 does the source give for `Cc1cc(Nc2nc(Nc3cc(C)c([C@H]4CC[C@@H](NC5CC5)CC4)cc3C)ncc2Cl)n[nH]1` [Compound 47, Cis-5-chloro-N2-(4-(4-(cyclopropylamino)cyclohexyl)-2,5-dimethylphenyl)-N4-(5-methyl-1H-pyrazol-3-yl)pyrimidine-2,4-diamine] here?
Answer: Its IC50 is 17 nM.

Question: How did the IC50 turn out when `Cc1cc(Nc2nc(Nc3cc(C)c([C@H]4CC[C@@H](N5CCCCC5)CC4)cc3F)ncc2Cl)n[nH]1` [Compound 48, Cis-5-chloro-N2-(2-fluoro-5-methyl-4-(4-(piperidin-1-yl)cyclohexyl)phenyl)-N4-(5-methyl-1H-pyrazol-3-yl)pyrimidine-2,4-diamine] was run?
Answer: The IC50 was 21 nM.

Question: `Cc1cc(Nc2nc(Nc3cc(C)c([C@H]4CC[C@H](N5CCCCC5)CC4)cc3F)ncc2Cl)n[nH]1` [Compound 49, Trans-5-chloro-N2-(2-fluoro-5-methyl-4-(4-(piperidin-1-yl)cyclohexyl)phenyl)-N4-(5-methyl-1H-pyrazol-3-yl)pyrimidine-2,4-diamine] was tested. Which IC50 did it give?
Answer: The IC50 was 40 nM.

Question: For `Cc1cc(Nc2nc(Nc3cc(C)c([C@H]4CC[C@H](N5CCOCC5)CC4)cc3F)ncc2Cl)n[nH]1` [Compound 50, Trans-5-chloro-N2-(2-fluoro-5-methyl-4-(4-morpholinocyclohexyl)phenyl)-N4-(5-methyl-1H-pyrazol-3-yl)pyrimidine-2,4-diamine], which IC50 is on record?
Answer: The IC50 was 31 nM.

Question: Which IC50 does the source give for `Cc1cc(Nc2nc(Nc3cc(C)c([C@H]4CC[C@@H](N5CCOCC5)CC4)cc3F)ncc2Cl)n[nH]1` [Compound 51, Cis-5-chloro-N2-(2-fluoro-5-methyl-4-(4-morpholinocyclohexyl)phenyl)-N4-(5-methyl-1H-pyrazol-3-yl)pyrimidine-2,4-diamine] here?
Answer: Its IC50 is 400 nM.

Question: Which IC50 does the source give for `Cc1cc(Nc2nc(Nc3cc(C)c([C@H]4CC[C@@H](N5CCN(C)CC5)CC4)cc3F)ncc2Cl)n[nH]1` [Compound 52, Cis-5-chloro-N2-(2-fluoro-5-methyl-4-(4-(4-methylpiperazin-1-yl)cyclohexyl)phenyl)-N4-(5-methyl-1H-pyrazol-3-yl)pyrimidine-2,4-diamine] here?
Answer: The IC50 was 24 nM.

Question: `Cc1cc(Nc2nc(Nc3cc(C)c([C@H]4CC[C@H](N5CCN(C)CC5)CC4)cc3F)ncc2Cl)[nH]n1` [Compound 53, Trans-5-chloro-N2-(2-fluoro-5-methyl-4-(4-(4-methylpiperazin-1-yl)cyclohexyl)phenyl)-N4-(5-methyl-1H-pyrazol-3-yl)pyrimidine-2,4-diamine] was tested. Which IC50 did it give?
Answer: Its IC50 is 25 nM.

Question: `Cc1cc(Nc2nc(Nc3cc(C)c([C@H]4CC[C@@H](N5CC[C@H](O)C5)CC4)cc3F)ncc2Cl)n[nH]1` [Compound 54, (S)-1-((Cis)-4-(4-(5-chloro-4-(5-methyl-1H-pyrazol-3-ylamino)pyrimidin-2-ylamino)-5-fluoro-2-methylphenyl)cyclohexyl)pyrrolidin-3-ol] was tested. Which IC50 did it give?
Answer: Its IC50 is 16 nM.

Question: `Cc1cc(Nc2nc(Nc3cc(C)c([C@H]4CC[C@H](N5CC[C@H](O)C5)CC4)cc3F)ncc2Cl)n[nH]1` [Compound 55, (S)-1-((Trans)-4-(4-(5-chloro-4-(5-methyl-1H-pyrazol-3-ylamino)pyrimidin-2-ylamino)-5-fluoro-2-methylphenyl)cyclohexyl)pyrrolidin-3-ol] was tested. Which IC50 did it give?
Answer: The IC50 was 32 nM.

Question: How did the IC50 turn out when `CCN(CC)[C@H]1CC[C@@H](c2cc(F)c(Nc3ncc(Cl)c(Nc4cc(C)[nH]n4)n3)cc2C)CC1` [Compound 56, 5-chloro-N2-(4-((cis)-4-(diethylamino)cyclohexyl)-2-fluoro-5-methylphenyl)-N4-(5-methyl-1H-pyrazol-3-yl)pyrimidine-2,4-diamine] was run?
Answer: Its IC50 is 25 nM.

Question: How did the IC50 turn out when `CCN(CC)[C@H]1CC[C@H](c2cc(F)c(Nc3ncc(Cl)c(Nc4cc(C)[nH]n4)n3)cc2C)CC1` [Compound 57, 5-chloro-N2-(4-((trans)-4-(diethylamino)cyclohexyl)-2-fluoro-5-methylphenyl)-N4-(5-methyl-1H-pyrazol-3-yl)pyrimidine-2,4-diamine] was run?
Answer: The IC50 was 31 nM.

Question: Which IC50 does the source give for `Cc1cc(Nc2nc(Nc3cc(C)c([C@H]4CC[C@@H](N5CCNCC5)CC4)cc3F)ncc2Cl)n[nH]1` [Compound 58, 5-chloro-N2-(2-fluoro-5-methyl-4-((cis)-4-(piperazin-1-yl)cyclohexyl)phenyl)-N4-(5-methyl-1H-pyrazol-3-yl)pyrimidine-2,4-diamine] here?
Answer: Its IC50 is 17 nM.
